Measurements published in US9550772B2, “Azaindole derivatives as multi kinase inhibitors” (ORIBASE PHARMA, priority 2012, dated 2017).
Read-outs that look alike come from different tables or passages of the source.

What was measured:
KDR (VEGFR2) = molecular target: T1, KDR (VEGFR2) (Homo sapiens, UniProt P35968); assay: In vitro kinase assay (Z'-LYTE, Invitrogen); type: biochemical; conditions: compound at 100 nM, ATP Km apparent, read-out: % of inhibition of the kinase compared to the control
T1 construct: purchased Invitrogen
Summary of the method: (§1)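 Z′-LYTE FRET assay: kinase phosphorylation protects the dual-labelled peptide from protease cleavage, read as donor/acceptor emission ratio. Conditions were ATP at apparent Km, 50 mM HEPES pH 7.5, 10 mM MgCl2, 1 mM EGTA, 0.01% BRIJ-35 and 1% DMSO, with compounds tested at 100 nM.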

PDGFRA (PDGFR alpha) = molecular target: T2, PDGFRA (PDGFR alpha) (Homo sapiens, UniProt P16234); assay: In vitro kinase assay (Z'-LYTE, Invitrogen); type: biochemical; conditions: compound at 100 nM, ATP Km apparent, read-out: % of inhibition of the kinase compared to the control
T2 construct: purchased Invitrogen
Summary of the method: as §1

SRC = molecular target: T3, SRC (Homo sapiens, UniProt P12931); assay: In vitro kinase assay (Z'-LYTE, Invitrogen); type: biochemical; conditions: compound at 100 nM, ATP Km apparent, read-out: % of inhibition of the kinase compared to the control
T3 construct: purchased Invitrogen
Summary of the method: as §1

FGFR2 = molecular target: T4, FGFR2 (Homo sapiens, UniProt P21802); assay: In vitro kinase assay (Z'-LYTE, Invitrogen); type: biochemical; conditions: compound at 100 nM, ATP Km apparent, read-out: % of inhibition of the kinase compared to the control
T4 construct: purchased Invitrogen
Summary of the method: as §1

EGFR (ErbB1) = molecular target: T5, EGFR (ErbB1) (Homo sapiens, UniProt P00533); assay: In vitro kinase assay (Z'-LYTE, Invitrogen); type: biochemical; conditions: compound at 100 nM, ATP Km apparent, read-out: % of inhibition of the kinase compared to the control
T5 construct: purchased Invitrogen
Summary of the method: as §1

BRAF = molecular target: T6, BRAF (Homo sapiens, UniProt P15056); assay: In vitro kinase assay (Z'-LYTE, Invitrogen); type: biochemical; conditions: compound at 100 nM, ATP Km apparent, read-out: % of inhibition of the kinase compared to the control
T6 construct: purchased Invitrogen
Summary of the method: as §1

EGFR (ErbB1) T790M L858R = molecular target: T7, EGFR (ErbB1) T790M L858R (Homo sapiens, UniProt P00533, L858R/T790M); assay: In vitro kinase assay (Z'-LYTE, Invitrogen); type: biochemical; conditions: compound at 100 nM, ATP Km apparent, read-out: % of inhibition of the kinase compared to the control
T7 construct: purchased Invitrogen
Summary of the method: as §1

HUVEC cells = assay: In vitro cell proliferation assay (MTT); type: cell-based; conditions: Homo sapiens, 72 hr, read-out: EC50, anti-proliferative activity
Summary of the method: (§2)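 Cells (5×10^3 per well for cancer lines, 1×10^4 for HRMEC) incubated in duplicate with 10 nM to 3 μM compound for 72 hr. Proliferation read by MTT; EC50 from sigmoidal fits normalised to DMSO (0%) and 1% SDS (100%) controls.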

HuCCT1 cell line = assay: In vitro cell proliferation assay (MTT); type: cell-based; conditions: Homo sapiens, HuCCT-1, HuCCT1, 72 hr, read-out: EC50, anti-proliferative activity
Summary of the method: as §2

HT29 cell line = assay: In vitro cell proliferation assay (MTT); type: cell-based; conditions: Homo sapiens, HT-29, HT29, 72 hr, read-out: EC50, anti-proliferative activity
Summary of the method: as §2

H1975 cell line = assay: In vitro cell proliferation assay (MTT); type: cell-based; conditions: Homo sapiens, NCI-H1975, H1975, 72 hr, read-out: EC50, anti-proliferative activity
Summary of the method: as §2

HepG2 cell line = assay: In vitro cell proliferation assay (MTT); type: cell-based; conditions: Homo sapiens, HepG2, 72 hr, read-out: EC50, anti-proliferative activity
Summary of the method: as §2

A549 cell line = assay: In vitro cell proliferation assay (MTT); type: cell-based; conditions: Homo sapiens, A549, 72 h, read-out: EC50, anti-proliferative activity
Summary of the method: as §2

HuH7 cell line = assay: In vitro cell proliferation assay (MTT); type: cell-based; conditions: Homo sapiens, Huh-7, HuH7, 72 hr, read-out: EC50, anti-proliferative activity
Summary of the method: as §2

HeLa cell line = assay: In vitro cell proliferation assay (MTT); type: cell-based; conditions: Homo sapiens, 72 hr, 100 nM < EC50 < 1 μM, read-out: EC50, anti-proliferative activity
Summary of the method: as §2

MDA-MB-231 cell line = assay: In vitro cell proliferation assay (MTT); type: cell-based; conditions: Homo sapiens, MDA-MB-231, 72 hr, EC50 ≦ 100 nM, read-out: EC50, anti-proliferative activity
Summary of the method: as §2

HuH6 Clone 5 cell line = assay: In vitro cell proliferation assay (MTT); type: cell-based; conditions: HUH-6-clone5, HuH6 Clone 5, 72 hr, read-out: EC50, anti-proliferative activity
Summary of the method: as §2

HRMEC cells = assay: In vitro cell proliferation assay (MTT); type: cell-based; conditions: 72 hr, read-out: EC50, anti-proliferative activity
Summary of the method: as §2

T1 sequence (P35968 20-1356): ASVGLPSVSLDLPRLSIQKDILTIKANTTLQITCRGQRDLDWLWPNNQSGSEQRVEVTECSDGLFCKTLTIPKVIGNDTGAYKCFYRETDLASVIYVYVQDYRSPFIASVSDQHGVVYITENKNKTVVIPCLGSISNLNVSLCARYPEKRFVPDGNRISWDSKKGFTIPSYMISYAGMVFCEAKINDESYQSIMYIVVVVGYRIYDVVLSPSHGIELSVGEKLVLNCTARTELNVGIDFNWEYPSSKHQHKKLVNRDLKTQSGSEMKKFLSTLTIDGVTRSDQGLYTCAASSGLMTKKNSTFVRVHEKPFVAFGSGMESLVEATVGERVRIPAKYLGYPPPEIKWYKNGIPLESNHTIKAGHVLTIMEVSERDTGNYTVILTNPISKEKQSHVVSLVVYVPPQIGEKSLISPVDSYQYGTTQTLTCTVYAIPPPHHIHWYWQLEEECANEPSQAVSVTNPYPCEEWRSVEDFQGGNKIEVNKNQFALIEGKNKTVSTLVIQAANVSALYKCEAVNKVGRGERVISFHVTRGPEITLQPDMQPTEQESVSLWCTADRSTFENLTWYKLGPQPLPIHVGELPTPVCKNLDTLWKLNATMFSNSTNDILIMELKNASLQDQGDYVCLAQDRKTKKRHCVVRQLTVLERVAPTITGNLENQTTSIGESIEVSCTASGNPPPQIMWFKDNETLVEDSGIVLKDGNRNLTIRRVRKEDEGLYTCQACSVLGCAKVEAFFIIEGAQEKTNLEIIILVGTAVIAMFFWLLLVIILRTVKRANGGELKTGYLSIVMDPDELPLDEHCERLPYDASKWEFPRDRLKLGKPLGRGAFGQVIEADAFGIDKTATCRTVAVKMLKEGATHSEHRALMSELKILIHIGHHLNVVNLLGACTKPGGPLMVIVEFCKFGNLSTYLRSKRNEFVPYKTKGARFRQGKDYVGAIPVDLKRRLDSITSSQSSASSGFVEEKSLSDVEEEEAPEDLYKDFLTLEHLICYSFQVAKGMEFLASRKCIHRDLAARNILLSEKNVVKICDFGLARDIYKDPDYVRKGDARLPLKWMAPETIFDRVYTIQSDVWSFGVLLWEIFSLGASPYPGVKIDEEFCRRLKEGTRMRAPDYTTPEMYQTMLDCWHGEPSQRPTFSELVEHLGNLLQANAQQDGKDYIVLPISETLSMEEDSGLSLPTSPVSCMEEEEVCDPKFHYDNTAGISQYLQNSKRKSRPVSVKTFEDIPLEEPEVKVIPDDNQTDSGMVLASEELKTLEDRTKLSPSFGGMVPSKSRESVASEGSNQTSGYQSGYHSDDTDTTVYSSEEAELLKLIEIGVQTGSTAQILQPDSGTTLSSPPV
T6 sequence (P15056 whole entry): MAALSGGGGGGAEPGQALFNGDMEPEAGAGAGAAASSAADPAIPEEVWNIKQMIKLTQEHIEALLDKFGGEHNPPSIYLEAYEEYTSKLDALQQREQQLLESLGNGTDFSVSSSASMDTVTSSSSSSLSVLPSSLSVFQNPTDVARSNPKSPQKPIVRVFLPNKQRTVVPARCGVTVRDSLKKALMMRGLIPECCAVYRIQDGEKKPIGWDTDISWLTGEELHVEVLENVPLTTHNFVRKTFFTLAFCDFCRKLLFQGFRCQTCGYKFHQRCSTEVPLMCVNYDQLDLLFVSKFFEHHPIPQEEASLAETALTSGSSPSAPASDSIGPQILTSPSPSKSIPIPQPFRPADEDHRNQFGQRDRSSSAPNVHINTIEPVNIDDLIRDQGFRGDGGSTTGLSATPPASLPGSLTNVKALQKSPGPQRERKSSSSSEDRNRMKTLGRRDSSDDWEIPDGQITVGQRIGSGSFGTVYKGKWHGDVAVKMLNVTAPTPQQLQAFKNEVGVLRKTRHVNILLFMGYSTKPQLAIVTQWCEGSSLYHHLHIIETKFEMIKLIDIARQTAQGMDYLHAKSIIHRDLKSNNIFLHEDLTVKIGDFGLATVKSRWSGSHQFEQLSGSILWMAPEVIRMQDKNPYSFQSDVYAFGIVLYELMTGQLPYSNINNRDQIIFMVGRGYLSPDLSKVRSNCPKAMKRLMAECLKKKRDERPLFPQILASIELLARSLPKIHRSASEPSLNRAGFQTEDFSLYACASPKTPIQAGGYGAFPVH
T3 sequence (P12931 whole entry): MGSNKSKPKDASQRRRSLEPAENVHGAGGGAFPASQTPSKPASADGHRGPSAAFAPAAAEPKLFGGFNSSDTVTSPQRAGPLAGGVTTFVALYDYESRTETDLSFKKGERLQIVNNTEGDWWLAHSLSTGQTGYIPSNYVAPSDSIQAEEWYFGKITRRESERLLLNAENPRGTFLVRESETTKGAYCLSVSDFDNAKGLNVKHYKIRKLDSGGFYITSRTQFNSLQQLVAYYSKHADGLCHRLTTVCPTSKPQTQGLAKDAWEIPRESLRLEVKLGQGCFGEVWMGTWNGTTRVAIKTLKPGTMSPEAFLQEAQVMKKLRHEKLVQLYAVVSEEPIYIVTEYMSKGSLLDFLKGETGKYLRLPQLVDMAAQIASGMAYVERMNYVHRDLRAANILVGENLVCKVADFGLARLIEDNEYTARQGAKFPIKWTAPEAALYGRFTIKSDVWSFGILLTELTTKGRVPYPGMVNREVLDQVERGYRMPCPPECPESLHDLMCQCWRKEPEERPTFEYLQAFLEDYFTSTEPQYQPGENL
T5 sequence (P00533 25-1210): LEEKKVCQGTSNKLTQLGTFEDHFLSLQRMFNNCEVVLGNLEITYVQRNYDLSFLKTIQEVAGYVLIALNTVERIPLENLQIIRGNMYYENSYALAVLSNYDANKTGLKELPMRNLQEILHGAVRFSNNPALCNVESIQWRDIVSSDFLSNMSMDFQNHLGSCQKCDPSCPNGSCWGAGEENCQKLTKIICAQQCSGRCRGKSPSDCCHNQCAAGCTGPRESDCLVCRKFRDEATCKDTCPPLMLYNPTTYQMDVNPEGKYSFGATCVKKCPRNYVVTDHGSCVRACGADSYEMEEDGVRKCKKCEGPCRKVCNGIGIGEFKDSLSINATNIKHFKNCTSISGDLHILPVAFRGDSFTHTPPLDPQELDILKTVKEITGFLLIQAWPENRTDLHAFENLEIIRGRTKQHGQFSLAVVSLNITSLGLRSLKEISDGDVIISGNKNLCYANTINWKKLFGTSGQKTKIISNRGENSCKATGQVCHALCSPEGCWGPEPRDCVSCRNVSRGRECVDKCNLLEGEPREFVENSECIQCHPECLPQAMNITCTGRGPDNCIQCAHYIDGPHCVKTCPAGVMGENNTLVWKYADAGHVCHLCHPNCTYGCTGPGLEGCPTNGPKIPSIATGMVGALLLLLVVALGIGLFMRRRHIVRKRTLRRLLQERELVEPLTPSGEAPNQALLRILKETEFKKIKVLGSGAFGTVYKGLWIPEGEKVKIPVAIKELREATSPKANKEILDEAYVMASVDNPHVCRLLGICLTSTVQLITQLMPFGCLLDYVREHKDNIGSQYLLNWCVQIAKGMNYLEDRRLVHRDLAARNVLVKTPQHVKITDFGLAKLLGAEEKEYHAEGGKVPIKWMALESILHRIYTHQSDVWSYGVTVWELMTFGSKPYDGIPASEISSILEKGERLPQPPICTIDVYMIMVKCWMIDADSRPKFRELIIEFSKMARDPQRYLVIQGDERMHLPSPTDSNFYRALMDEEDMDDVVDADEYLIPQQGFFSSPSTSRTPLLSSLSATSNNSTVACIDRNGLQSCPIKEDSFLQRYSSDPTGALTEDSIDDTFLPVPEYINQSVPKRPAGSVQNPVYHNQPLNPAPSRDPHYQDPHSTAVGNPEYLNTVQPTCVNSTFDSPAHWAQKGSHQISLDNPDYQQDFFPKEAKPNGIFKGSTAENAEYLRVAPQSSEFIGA
T7 sequence (P00533 25-1210 T790M/L858R): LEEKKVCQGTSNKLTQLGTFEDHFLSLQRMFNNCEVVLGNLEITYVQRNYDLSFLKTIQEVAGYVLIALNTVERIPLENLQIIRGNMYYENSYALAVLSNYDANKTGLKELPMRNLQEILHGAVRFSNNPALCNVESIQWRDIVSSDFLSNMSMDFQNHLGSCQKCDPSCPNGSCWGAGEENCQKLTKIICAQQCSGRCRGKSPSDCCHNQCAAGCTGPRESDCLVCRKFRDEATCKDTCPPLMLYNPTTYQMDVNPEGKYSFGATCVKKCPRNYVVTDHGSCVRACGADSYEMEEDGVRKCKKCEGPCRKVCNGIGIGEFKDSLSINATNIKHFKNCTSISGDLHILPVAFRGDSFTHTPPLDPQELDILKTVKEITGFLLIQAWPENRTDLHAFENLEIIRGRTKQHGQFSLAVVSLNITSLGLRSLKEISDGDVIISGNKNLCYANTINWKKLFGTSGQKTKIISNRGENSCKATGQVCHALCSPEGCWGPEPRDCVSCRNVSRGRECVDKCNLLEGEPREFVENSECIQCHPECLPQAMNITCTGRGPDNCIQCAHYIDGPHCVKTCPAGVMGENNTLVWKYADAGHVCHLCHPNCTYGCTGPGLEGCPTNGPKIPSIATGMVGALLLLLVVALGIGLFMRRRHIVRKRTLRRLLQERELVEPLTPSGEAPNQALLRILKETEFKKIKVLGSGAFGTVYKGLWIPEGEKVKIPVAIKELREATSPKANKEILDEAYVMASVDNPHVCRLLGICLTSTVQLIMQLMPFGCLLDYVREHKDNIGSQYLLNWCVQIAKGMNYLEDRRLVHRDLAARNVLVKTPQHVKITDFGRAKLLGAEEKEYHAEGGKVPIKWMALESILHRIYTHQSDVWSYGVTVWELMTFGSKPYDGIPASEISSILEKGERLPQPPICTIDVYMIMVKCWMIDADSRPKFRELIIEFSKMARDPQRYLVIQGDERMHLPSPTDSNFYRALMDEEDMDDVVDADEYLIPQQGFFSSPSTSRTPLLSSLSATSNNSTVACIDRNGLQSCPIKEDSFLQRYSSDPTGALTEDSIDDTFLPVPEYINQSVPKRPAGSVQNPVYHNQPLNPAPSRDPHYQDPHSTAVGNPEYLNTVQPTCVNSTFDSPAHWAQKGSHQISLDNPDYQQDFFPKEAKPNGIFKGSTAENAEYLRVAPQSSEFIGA

| SMILES | inhibition at 0.1 µM (KDR (VEGFR2)) [%] | inhibition at 0.1 µM (PDGFRA (PDGFR alpha)) [%] | inhibition at 0.1 µM (SRC) [%] | inhibition at 0.1 µM (FGFR2) [%] | inhibition at 0.1 µM (EGFR (ErbB1)) [%] | inhibition at 0.1 µM (BRAF) [%] | inhibition at 0.1 µM (EGFR (ErbB1) T790M L858R) [%] | EC50 (HUVEC cells; 100 nM < EC50 < 1 μM) [nM] | EC50 (HuCCT1 cell line; EC50 ≧ 1 μM) [nM] | EC50 (HT29 cell line; EC50 ≧ 1 μM) [nM] | EC50 (H1975 cell line; EC50 ≧ 1 μM) [nM] | EC50 (HepG2 cell line; EC50 ≧ 1 μM) [nM] | EC50 (A549 cell line; EC50 ≧ 1 μM) [nM] | EC50 (HuH7 cell line; 100 nM < EC50 < 1 μM) [nM] | EC50 (HepG2 cell line; 100 nM < EC50 < 1 μM) [nM] | also measured |
| --- | --- | --- | --- | --- | --- | --- | --- | --- | --- | --- | --- | --- | --- | --- | --- | --- |
| COC(=O)c1cc2cc(CNc3cc(NC(=O)c4ccc(CN5CCN(C)CC5)c(C(F)(F)F)c4)ccc3C)cnc2[nH]1 [OR0747, 5-({2-Methyl-5-[4-(4-methyl-piperazin-1-ylmethyl)-3-trifluoromethyl-benzoylamino]-phenylamino}-methyl)-1H-pyrrolo[2,3-b]pyridine-2-carboxylic acid methyl ester] | ≥ 50 | ≥ 50 | ≥ 50 | ≥ 50 | ≥ 50 | < 50 | < 50 | 100 to 1000 | ≥ 1000 | ≥ 1000 | ≥ 1000 | ≥ 1000 | ≥ 1000 | – | – | – |
| COC(=O)c1cc2cc(CCc3cc(NC(=O)c4ccc(CN5CCN(C)CC5)c(C(F)(F)F)c4)ccc3C)cnc2[nH]1 [OR0748, 5-(2-{2-Methyl-5-[4-(4-methyl-piperazin-1-ylmethyl)-3-trifluoromethyl-benzoylamino]-phenyl}-ethyl)-1H-pyrrolo[2,3-b]pyridine-2-carboxylic acid methyl ester] | ≥ 50 | ≥ 50 | ≥ 50 | ≥ 50 | ≥ 50 | ≥ 50 | ≥ 50 | – | – | ≥ 1000 | – | – | – | 100 to 1000 | 100 to 1000 | EC50 (HUVEC cells; EC50 ≦ 100 nM): ≤ 100 nM; EC50 (HuCCT1 cell line; 100 nM < EC50 < 1 μM): 100 to 1000 nM; EC50 (HeLa cell line): 100 to 1000 nM; EC50 (H1975 cell line; 100 nM < EC50 < 1 μM): 100 to 1000 nM; EC50 (MDA-MB-231 cell line): ≤ 100 nM; EC50 (HuH6 Clone 5 cell line; EC50 ≧ 1 μM): ≥ 1000 nM; EC50 (A549 cell line; 100 nM < EC50 < 1 μM): 100 to 1000 nM; EC50 (A549 cell line; EC50 ≦ 100 nM): ≤ 100 nM |
| COC(=O)c1cc2cc(COc3cc(NC(=O)c4ccc(CN5CCN(C)CC5)c(C(F)(F)F)c4)ccc3C)cnc2[nH]1 [OR0749, 5-{2-Methyl-5-[4-(4-methyl-piperazin-1-ylmethyl)-3-trifluoromethyl-benzoylamino]-phenoxymethyl}-1H-pyrrolo[2,3-b]pyridine-2-carboxylic acid methyl ester] | ≥ 50 | ≥ 50 | ≥ 50 | ≥ 50 | ≥ 50 | < 50 | < 50 | 100 to 1000 | ≥ 1000 | – | ≥ 1000 | ≥ 1000 | ≥ 1000 | 100 to 1000 | – | EC50 (HT29 cell line; 100 nM < EC50 < 1 μM): 100 to 1000 nM; EC50 (HuH6 Clone 5 cell line; EC50 ≧ 1 μM): ≥ 1000 nM |
| COC(=O)c1cc2cc(COc3cc(NC(=O)c4ccc(CN5CCC(N(C)C)C5)c(C(F)(F)F)c4)ccc3C)cnc2[nH]1 (stereo not drawn) [OR0750, 5-{5-[4-(3-Dimethylamino-pyrrolidin-1-ylmethyl)-3-trifluoromethyl-benzoylamino]-2-methyl-phenoxymethyl}-1H-pyrrolo[2,3-b]pyridine-2-carboxylic acid methyl ester] | ≥ 50 | ≥ 50 | ≥ 50 | ≥ 50 | ≥ 50 | < 50 | < 50 | 100 to 1000 | ≥ 1000 | ≥ 1000 | – | ≥ 1000 | ≥ 1000 | – | – | EC50 (H1975 cell line; 100 nM < EC50 < 1 μM): 100 to 1000 nM |
| COC(=O)c1cc2cc(C=Cc3cc(NC(=O)c4ccc(CN5CCN(C)CC5)cc4)ccc3C)cnc2[nH]1 [OR0776, 5-(-2-{2-Methyl-5-[4-(4-methyl-piperazin-1-ylmethyl)-benzoylamino]-phenyl}-vinyl)-1H-pyrrolo[2,3-b]pyridine-2-carboxylic acid methyl ester] | ≥ 50 | ≥ 50 | < 50 | < 50 | < 50 | < 50 | – | – | – | – | – | – | – | – | – | EC50 (HRMEC cells; EC50 ≧ 1 μM): ≥ 1000 nM |
| COC(=O)c1cc2cc(C=Cc3cc(NC(=O)c4ccc(CN5CCN(C)CC5)c(C(F)(F)F)c4)ccc3C)cnc2[nH]1 [OR0777, 5-(-2-{2-Methyl-5-[4-(4-methyl-piperazin-1-ylmethyl)-3-trifluoromethyl-benzoylamino]-phenyl}-vinyl)-1H-pyrrolo[2,3-b]pyridine-2-carboxylic acid methyl ester] | ≥ 50 | ≥ 50 | ≥ 50 | ≥ 50 | ≥ 50 | < 50 | < 50 | 100 to 1000 | – | ≥ 1000 | ≥ 1000 | – | ≥ 1000 | 100 to 1000 | 100 to 1000 | EC50 (HuCCT1 cell line; 100 nM < EC50 < 1 μM): 100 to 1000 nM; EC50 (HuH6 Clone 5 cell line; 100 nM < EC50 < 1 μM): 100 to 1000 nM |
| CC(=O)c1cc2cc(CCc3cc(NC(=O)c4ccc(CN5CCN(C)CC5)c(C(F)(F)F)c4)ccc3C)cnc2[nH]1 [OR0797, N-{3-[2-(2-Acetyl-1H-pyrrolo[2,3-b]pyridin-5-yl)-ethyl]-4-methyl-phenyl}-4-(4-methyl-piperazin-1-ylmethyl)-3-trifluoromethyl-benzamide] | ≥ 50 | ≥ 50 | ≥ 50 | ≥ 50 | ≥ 50 | ≥ 50 | – | – | ≥ 1000 | – | – | – | – | – | 100 to 1000 | EC50 (HUVEC cells; EC50 ≦ 100 nM): ≤ 100 nM; EC50 (HuH7 cell line; EC50 ≦ 100 nM): ≤ 100 nM; EC50 (HeLa cell line): 100 to 1000 nM; EC50 (HRMEC cells; EC50 ≦ 100 nM): ≤ 100 nM; EC50 (MDA-MB-231 cell line): ≤ 100 nM; EC50 (HuH6 Clone 5 cell line; 100 nM < EC50 < 1 μM): 100 to 1000 nM; EC50 (A549 cell line; EC50 ≦ 100 nM): ≤ 100 nM |
